These results are taken from patent publication US9458113B2 (Boehringer Ingelheim International GmbH, priority 2014, dated 2016).

For orientation: IC50 means the point on the concentration scale where inhibition reaches its midpoint. Higher therefore signals weaker potency.

In this assay the target is Human neutrophil elastase (Homo sapiens (Human), UniProt P08246). Description: Human Neutrophil Elastase Assay. Format: biochemical. The conditions noted are these: substrate MeOSuc-Ala-Ala-Pro-Val-AMC 250 μM, pH 7.5.
Chain of Human neutrophil elastase (P08246 30-247): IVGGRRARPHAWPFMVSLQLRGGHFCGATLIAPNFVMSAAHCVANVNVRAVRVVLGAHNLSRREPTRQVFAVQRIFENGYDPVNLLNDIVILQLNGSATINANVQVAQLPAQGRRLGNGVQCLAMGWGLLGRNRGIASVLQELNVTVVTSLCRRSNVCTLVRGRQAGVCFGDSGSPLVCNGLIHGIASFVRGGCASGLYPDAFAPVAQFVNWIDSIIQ
`N#Cc1ccc(C2NC(=O)N(c3cccc(C(F)(F)F)c3)C3=C2C(=O)CC3)c(-c2ccoc2)c1` (stereo not drawn) [Example 19, 4-[2,5-Dioxo-1-(3-trifluoromethyl-phenyl)-2,3,4,5,6,7-hexahydro-1H-cyclopentapyrimidin-4-yl]-3-furan-3-yl-benzonitrile] gave an IC50 of 10.1 nM. Turning to `CN(CCN)C(=O)c1cc(C#N)ccc1C1C2=C(CCC2=O)N(c2cccc(C(F)(F)F)c2)C(=O)N1C` (stereo not drawn) [Example 4.5], the IC50 came to 2 nM. The figure for `CN1C(=O)N(c2cccc(C(F)(F)F)c2)C2=C(C(=O)CC2)C1c1ccc(C#N)cc1-c1ccoc1` (stereo not drawn) [Example 11, 3-Furan-3-yl-4-[3-methyl-2,5-dioxo-1-(3-trifluoromethyl-phenyl)-2,3,4,5,6,7-hexahydro-1H-cyclopentapyrimidin-4-yl]-benzonitrile] is 3.3 nM; for `CN1C(=O)N(c2cccc(C(F)(F)F)c2)C2=C(C(=O)CC2)C1c1ccc(C#N)cc1-c1nnco1` (stereo not drawn) [Example 13, 4-[3-Methyl-2,5-dioxo-1-(3-trifluoromethyl-phenyl)-2,3,4,5,6,7-hexahydro-1H-cyclopentapyrimidin-4-yl]-3-[1,3,4]oxadiazol-2-yl-benzonitrile] it is 2.1 nM; for `CN1C(=O)N(c2cccc(C(F)(F)F)c2)C2=C(C(=O)CC2)C1c1ccc(C#N)cc1C(=O)NCC(F)(F)F` (stereo not drawn) [Example 1.21] it is 7.1 nM. The figure for `CN1C(=O)N(c2cccc(C(F)(F)F)c2)C2=C(C(=O)CC2)C1c1ccc(C#N)cc1C(=O)N1CCN2CCOCC2C1` (stereo not drawn) [Example 1.35] is 16.2 nM. In turn, `CN1C(=O)N(c2cccc(C(F)(F)F)c2)C2=C(C(=O)CC2)C1c1ccc(C#N)cc1C(=O)NCc1ccccn1` (stereo not drawn) [Example 1.47] came in with an IC50 of 4.2 nM. The figure for `CN1CCC(NC(=O)c2cc(C#N)ccc2C2C3=C(CCC3=O)N(c3cccc(C(F)(F)F)c3)C(=O)N2C)CC1` (stereo not drawn) [Example 1.25] is 8 nM. The figure for `CN(C)C(=O)c1cc(C#N)ccc1C1C2=C(CCC2=O)N(c2cccc(C(F)(F)F)c2)C(=O)N1C` (stereo not drawn) [Example 1.3] is 5.4 nM; for `CN1C(=O)N(c2cccc(C(F)(F)F)c2)C2=C(C(=O)CC2)C1c1ccc(C#N)cc1CNC(C)(C)C` (stereo not drawn) [Example 9.2] it is 3.3 nM; for `CN1C(=O)N(c2cccc(C(F)(F)F)c2)C2=C(C(=O)CCC2)C1c1ccc(C#N)cc1C1=CCN(C(=O)OC(C)(C)C)C1` (stereo not drawn) [Example 15.6] it is 10.7 nM.

With `CN1C(=O)N(c2cccc(C(F)(F)F)c2)C2=C(C(=O)CC2)C1c1ccc(C#N)cc1C1=CCCO1` (stereo not drawn) [Example 11.5], the IC50 was less than 1 nM. The figure for `CN1C(=O)N(c2cccc(C(F)(F)F)c2)C2=C(C(=O)CC2)C1c1ccc(C#N)cc1C(=O)N1CCC(N)CC1` (stereo not drawn) [Example 4.1] is 15.1 nM. Regarding `CN1C(=O)N(c2cccc(C(F)(F)F)c2)C2=C(C(=O)CC2)C1c1ccc(C#N)cc1C(N)=O` (stereo not drawn) [Example 1, 5-Cyano-2-[3-methyl-2,5-dioxo-1-(3-trifluoromethyl-phenyl)-2,3,4,5,6,7-hexahydro-1H-cyclopentapyrimidin-4-yl]-benzamide], the IC50 is 5.3 nM. The figure for `CN1C(=O)N(c2cccc(C(F)(F)F)c2)C2=C(C(=O)CC2)C1c1ccc(C#N)cc1C(=O)NCc1cncn1C` (stereo not drawn) [Example 1.52] is 4.2 nM; for `CN1C(=O)N(c2cccc(C(F)(F)F)c2)C2=C(C(=O)CC2)C1c1ccc(C#N)cc1C(=O)N1CCC(N2CCOCC2)C1` (stereo not drawn) [Example 1.79] it is 3 nM. Under `CN1C(=O)N(c2cccc(C(F)(F)F)c2)C2=C(C(=O)CC2)C1c1ccc(C#N)cc1C(=O)NCc1ccnn1C` (stereo not drawn) [Example 1.56] stands 5.4 nM; under `CN1C(=O)N(c2ccnc(C(F)(F)F)c2)C2=C(C(=O)CC2)[C@H]1c1ccc(C#N)cc1C(N)=O` [Example 8, 5-Cyano-2-[(R)-3-methyl-1-(2-trifluoromethyl-pyridin-4-yl)-2,5-dioxo-2,3,4,5,6,7-hexahydro-1H-cyclopentapyrimidin-4-yl]-benzamide], 41 nM. `CN1CCN(C(=O)c2cc(C#N)ccc2C2C3=C(CCCC3=O)N(c3cccc(C(F)(F)F)c3)C(=O)N2C)CC1` (stereo not drawn) [Example 6.2]: the IC50 is 5.1 nM.

Take `CN1C(=O)N(c2cccc(C(F)(F)F)c2)C2=C(C(=O)CC2)C1c1ccc(C#N)cc1C(=O)NCCF` (stereo not drawn) [Example 1.9]: the IC50 stood at 5.5 nM.

As for `CN1C(=O)N(c2cccc(C(F)(F)F)c2)C2=C(C(=O)CCC2)C1c1ccc(C#N)cc1C(N)=O` (stereo not drawn) [Example 6, 5-Cyano-2-[3-methyl-2,5-dioxo-1-(3-trifluoromethyl-phenyl)-1,2,3,4,5,6,7,8-octahydro-quinazolin-4-yl]-benzamide], the midpoint of inhibition, the IC50, lay at 1.6 nM. The figure for `CN(C)CCN(C)C(=O)c1cc(C#N)ccc1C1C2=C(CCC2=O)N(c2cccc(C(F)(F)F)c2)C(=O)N1C` (stereo not drawn) [Example 3.1] is 1.3 nM; for `CN1C(=O)N(c2cccc(C(F)(F)F)c2)C2=C(C(=O)CC2)C1c1ccc(C#N)cc1C(=O)NCC(C)(C)O` (stereo not drawn) [Example 1.19] it is 9.5 nM; for `CC(=O)N[C@@H]1CCN(C(=O)c2cc(C#N)ccc2C2C3=C(CCC3=O)N(c3cccc(C(F)(F)F)c3)C(=O)N2C)C1` (stereo partly drawn) [Example 1.84] it is 1.3 nM. Under `CN[C@H]1CCN(C(=O)c2cc(C#N)ccc2C2C3=C(CCC3=O)N(c3cccc(C(F)(F)F)c3)C(=O)N2C)C1` (stereo partly drawn) [Example 4.12] stands 3.8 nM; under `CN1C(=O)N(c2cccc(C(F)(F)F)c2)C2=C(C(=O)CC2)C1c1ccc(C#N)cc1C(=O)NCc1cnco1` (stereo not drawn) [Example 1.40], 1 nM; under `CN1C(=O)N(c2cccc(C(F)(F)F)c2)C2=C(C(=O)CCC2)C1c1ccc(C#N)cc1C1=CCNCC1` (stereo not drawn) [Example 16, 4-[3-Methyl-2,5-dioxo-1-(3-trifluoromethyl-phenyl)-1,2,3,4,5,6,7,8-octahydro-quinazolin-4-yl]-3-(1,2,3,6-tetrahydro-pyridin-4-yl)-benzonitrile], less than 1 nM. Under `CN1C(=O)N(c2cccc(C(F)(F)F)c2)C2=C(C(=O)CC2)C1c1ccc(C#N)cc1C1=CCNC1` (stereo not drawn) [Example 14, 3-(2,5-Dihydro-1H-pyrrol-3-yl)-4-[3-methyl-2,5-dioxo-1-(3-trifluoromethyl-phenyl)-2,3,4,5,6,7-hexahydro-1H-cyclopentapyrimidin-4-yl]-benzonitrile] stands less than 1 nM; under `CN1C(=O)N(c2cccc(C(F)(F)F)c2)C2=C(C(=O)CC2)C1c1ccc(C#N)cc1C(=O)N1CCn2cncc2C1` (stereo not drawn) [Example 1.66], 7.1 nM. Take `CN1C(=O)N(c2ccnc(C(F)(F)F)c2)C2=C(C(=O)CC2)C1c1ccc(C#N)cc1C(=O)N1CCOCC1` (stereo not drawn) [Example 8.5]: the half-inhibitory concentration (IC50) amounted to 71.6 nM. The figure for `CN1C(=O)N(c2cccc(C(F)(F)F)c2)C2=C(C(=O)CC2)C1c1ccc(C#N)cc1C(=O)NCc1cn[nH]c1` (stereo not drawn) [Example 1.38] is 5 nM; for `CN1C(=O)N(c2cccc(C(F)(F)F)c2)C2=C(C(=O)CC2)C1c1ccc(C#N)cc1C(=O)N1CC2COCC(C1)N2` (stereo not drawn) [Example 4.17] it is 36.2 nM; for `CN1C(=O)N(c2cccc(C(F)(F)F)c2)C2=C(C(=O)CCC2)C1c1ccc(C#N)cc1C1=CCOCC1` (stereo not drawn) [Example 15.9] it is 1.3 nM.

As for `CNCc1cc(C#N)ccc1C1C2=C(CCC2=O)N(c2cccc(C(F)(F)F)c2)C(=O)N1C` (stereo not drawn) [Example 9.4], it took 2.2 nM to reach half-maximal inhibition (IC50). The figure for `CN1C(=O)N(c2cccc(C(F)(F)F)c2)C2=C(C(=O)CC2)C1c1ccc(C#N)cc1C(=O)NC(C)(C)C#N` (stereo not drawn) [Example 5, 5-Cyano-N-(cyano-dimethyl-methyl)-2-[3-methyl-2,5-dioxo-1-(3-trifluoromethyl-phenyl)-2,3,4,5,6,7-hexahydro-1H-cyclopentapyrimidin-4-yl]-benzamide] is 3.4 nM; for `CN1C(=O)N(c2cccc(C(F)(F)F)c2)C2=C(C(=O)CCC2)C1c1ccc(C#N)cc1C(N)=O` (single isomer, unassigned) [Example 7a, 5-Cyano-2-[3-methyl-2,5-dioxo-1-(3-trifluoromethyl-phenyl)-1,2,3,4,5,6,7,8-octahydro-quinazolin-4-yl]-benzamide] it is less than 1 nM; for `CC(NC(=O)c1cc(C#N)ccc1C1C2=C(CCC2=O)N(c2cccc(C(F)(F)F)c2)C(=O)N1C)c1ccco1` (stereo not drawn) [Example 1.51] it is 6.6 nM. `CN1C(=O)N(c2cccc(C(F)(F)F)c2)C2=C(C(=O)CC2)C1c1ccc(C#N)cc1C(=O)NCc1ccccc1` (stereo not drawn) [Example 1.45] displayed a concentration for half-maximal inhibition (IC50) of 5.3 nM. The figure for `CN1C(=O)N(c2ccnc(C(F)(F)F)c2)C2=C(C(=O)CC2)C1c1ccc(C#N)cc1-c1ccn(C)n1` (stereo not drawn) [Example 17.1] is 50.2 nM. Compound `CN1C(=O)N(c2cccc(C(F)(F)F)c2)C2=C(C(=O)CC2)C1c1ccc(C#N)cc1C(=O)NCc1ccco1` (stereo not drawn) [Example 1.36] gave an IC50 of 2.2 nM. Under `CN(Cc1nncn1C)C(=O)c1cc(C#N)ccc1C1C2=C(CCC2=O)N(c2cccc(C(F)(F)F)c2)C(=O)N1C` (stereo not drawn) [Example 1.75] stands 1.4 nM; under `CN1C(=O)N(c2cccc(C(F)(F)F)c2)C2=C(C(=O)CC2)C1c1ccc(C#N)cc1C(=O)NCC(F)F` (stereo not drawn) [Example 1.16], 6 nM. Under `CN1C(=O)N(c2ccnc(C(F)(F)F)c2)C2=C(C(=O)CC2)C1c1ccc(C#N)cc1-c1ccoc1` (stereo not drawn) [Example 17, 3-Furan-3-yl-4-[3-methyl-2,5-dioxo-1-(2-trifluoromethyl-pyridin-4-yl)-2,3,4,5,6,7-hexahydro-1H-cyclopentapyrimidin-4-yl]-benzonitrile] stands 11.2 nM. The figure for `CN1C(=O)N(c2cccc(C(F)(F)F)c2)C2=C(C(=O)CC2)C1c1ccc(C#N)cc1C(=O)N1C[C@H]2C[C@@H]1CN2` (stereo partly drawn) [Example 4.15] is 7.3 nM; for `CN1C(=O)N(c2cccc(C(F)(F)F)c2)C2=C(C(=O)CC2)C1c1ccc(C#N)cc1C(=O)NC1CCOCC1` (stereo not drawn) [Example 1.23] it is 8.4 nM; for `CN(Cc1nccn1C)C(=O)c1cc(C#N)ccc1C1C2=C(CCC2=O)N(c2cccc(C(F)(F)F)c2)C(=O)N1C` (stereo not drawn) [Example 1.74] it is less than 1 nM. `CN1C(=O)N(c2cccc(C(F)(F)F)c2)C2=C(C(=O)CC2)C1c1ccc(C#N)cc1C(=O)NCc1ccncc1` (stereo not drawn) [Example 1.48] yielded an IC50 of 4.1 nM. Under `CN1C(=O)N(c2cccc(C(F)(F)F)c2)C2=C(C(=O)CC2)C1c1ccc(C#N)cc1C(=O)NC1CC1` (stereo not drawn) [Example 1.6] stands 6.3 nM.
